# Measurements taken from patent US9840501B2, “Morpholin-pyridine derivatives” (Hoffmann-La Roche Inc., priority 2014, dated 2017).
# Tests used:
# [1] = biological target: mouse TAAR1 (Mus musculus (Mouse), UniProt Q923Y8); assay: Radioligand binding assay on mouse TAAR1; conditions: mouse TAAR1, membranes of stably transfected HEK-293 cells; first value of the pair; read-out: Ki (μM) mouse/rat: mouse
# Method in brief: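 Membranes from HEK293 cells stably expressing mouse TAAR1, in 20 mM HEPES-NaOH pH 7.4 with 0.1 mM EDTA, incubated 1 h at 4 °C with ^3[H]-(S)-4-[(ethyl-phenyl-amino)-methyl]-4,5-dihydro-oxazol-2-ylamine and compounds (10 pM to 10 μM, duplicates). Nonspecific binding with 10 μM unlabeled ligand; bound radioactivity counted after filtration.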
# [2] = biological target: rat TAAR1 (Rattus norvegicus (Rat), UniProt Q923Y9); assay: Radioligand binding assay on rat TAAR1; conditions: rat TAAR1, membranes of stably transfected HEK-293 cells; second value of the pair; read-out: Ki (μM) mouse/rat: rat
# Sequence of rat TAAR1 (Q923Y9 whole entry): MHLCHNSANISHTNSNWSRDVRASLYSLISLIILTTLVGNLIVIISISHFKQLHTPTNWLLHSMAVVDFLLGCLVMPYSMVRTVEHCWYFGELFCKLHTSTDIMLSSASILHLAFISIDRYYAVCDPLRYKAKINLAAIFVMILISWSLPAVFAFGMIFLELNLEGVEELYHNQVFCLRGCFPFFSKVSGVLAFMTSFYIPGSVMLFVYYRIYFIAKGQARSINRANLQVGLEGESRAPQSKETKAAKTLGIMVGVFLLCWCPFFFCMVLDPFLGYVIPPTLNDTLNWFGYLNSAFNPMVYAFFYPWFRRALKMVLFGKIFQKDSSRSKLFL
# Method in brief: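 Membranes from HEK293 cells stably expressing rat TAAR1, in 20 mM HEPES-NaOH pH 7.4; displacement of 3[H]-(S)-4-[(ethyl-phenyl-amino)-methyl]-4,5-dihydro-oxazol-2-ylamine, nonspecific binding with 10 μM unlabeled ligand. Compounds 10 pM to 10 μM in duplicate, 1 h at 4 °C, filtration and scintillation counting.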
# Sequence of mouse TAAR1 (Q923Y8 whole entry): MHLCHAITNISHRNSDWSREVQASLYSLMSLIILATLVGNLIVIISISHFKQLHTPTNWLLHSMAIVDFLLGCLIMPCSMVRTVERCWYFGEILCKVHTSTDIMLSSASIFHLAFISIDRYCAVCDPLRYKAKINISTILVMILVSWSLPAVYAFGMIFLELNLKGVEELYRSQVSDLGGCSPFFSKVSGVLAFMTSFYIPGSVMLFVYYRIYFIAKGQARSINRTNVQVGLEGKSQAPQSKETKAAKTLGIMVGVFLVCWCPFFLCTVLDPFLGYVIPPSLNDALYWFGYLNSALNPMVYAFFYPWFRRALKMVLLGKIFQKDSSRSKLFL
Ki [1],Ki [2],Compound
0.0038 µM,0.0745 µM,"O=C(Nc1ccc(C2CNCCO2)nc1)c1ccc(Cl)cc1 (racemic) [Example 7, (RS)-4-Chloro-N-(6-morpholin-2-yl-3-pyridyl)benzamide]"
0.0216 µM,0.107 µM,"CC(C)Cc1cc(C(=O)Nc2ccc([C@H]3CNCCO3)nc2)[nH]n1 [Example 94, 3-Isobutyl-N-[6-[(2R)-morpholin-2-yl]-3-pyridyl]-1H-pyrazole-5-carboxamide]"
0.0071 µM,0.0106 µM,"O=C(Nc1ccc(F)cc1)Nc1ccc(C2CNCCO2)nc1 (racemic) [Example 9, (RS)-1-(4-Fluorophenyl)-3-(6-morpholin-2-yl-3-pyridyl)urea]"
0.0096 µM,0.0448 µM,"O=C(Nc1ccc([C@H]2CNCCO2)nc1)c1[nH]nc(C2CC2)c1Cl [Example 60, 4-Chloro-3-cyclopropyl-N-[6-[(2R)-morpholin-2-yl]-3-pyridyl]-1H-pyrazole-5-carboxamide]"
0.0039 µM,0.212 µM,"O=C(Nc1ccc([C@H]2CNCCO2)nc1)c1ccc(Cl)cc1 [Example 51, 4-Chloro-N-[6-[(2R)-morpholin-2-yl]-3-pyridyl]benzamide]"
0.0035 µM,0.0103 µM,"FC(F)(F)c1ccc(Nc2ccc([C@@H]3CNCCO3)nc2)nc1 [Example 29, N-[6-[(2S)-Morpholin-2-yl]-3-pyridyl]-5-(trifluoromethyl)pyridin-2-amine]"
0.005 µM,0.122 µM,"FC(F)(F)c1cccc(Nc2ccc([C@H]3CNCCO3)nc2)n1 [Example 50, N-[6-[(2R)-Morpholin-2-yl]-3-pyridyl]-6-(trifluoromethyl)pyridin-2-amine]"
0.0543 µM,0.019 µM,"O=C(Nc1cccc(Cl)c1)Nc1cnc(C2CNCCO2)c(Cl)c1 (racemic) [Example 109, (RS)-1-(5-Chloro-6-morpholin-2-yl-3-pyridyl)-3-(3-chlorophenyl)urea]"
0.0042 µM,0.0029 µM,"O=C(Nc1ccc(C(F)(F)F)cc1)Nc1ccc(C2CNCCO2)nc1 (racemic) [Example 10, (RS)-1-(6-Morpholin-2-yl-3-pyridyl)-3-[4-(trifluoromethyl)phenyl]urea]"
0.0124 µM,0.328 µM,"CCOc1ccc(C(=O)Nc2ccc(C3CNCCO3)nc2)cc1 (racemic) [Example 13, (RS)-4-Ethoxy-N-(6-morpholin-2-yl-3-pyridyl)benzamide]"
0.344 µM,4.47 µM,"Cc1cn[nH]c1C(=O)Nc1ccc([C@H]2CNCCO2)nc1 [Example 65, 4-Methyl-N-[6-[(2R)-morpholin-2-yl]-3-pyridyl]-1H-pyrazole-5-carboxamide]"
0.0066 µM,0.0278 µM,"O=C(Nc1ccc([C@@H]2CNCCO2)nc1)c1ccc(OCC(F)(F)F)nc1 [Example 36, N-[6-[(2S)-Morpholin-2-yl]-3-pyridyl]-6-(2,2,2-trifluoroethoxy)pyridine-3-carboxamide]"
0.0084 µM,0.917 µM,"O=C(Nc1ccc(C2CNCCO2)nc1)c1ccc(F)cc1 (racemic) [Example 14, (RS)-4-Fluoro-N-(6-morpholin-2-yl-3-pyridyl)benzamide]"
0.0059 µM,1.96 µM,"O=C(Nc1cnc(C2CNCCO2)nc1)Nc1cccc(Cl)c1 (racemic) [Example 73, (RS)-1-(3-Chlorophenyl)-3-(2-morpholin-2-ylpyrimidin-5-yl)urea]"
0.162 µM,1.13 µM,"Cc1cn[nH]c1C(=O)Nc1ccc([C@@H]2CNCCO2)nc1 [Example 45, 4-Methyl-N-[6-[(2S)-morpholin-2-yl]-3-pyridyl]-1H-pyrazole-5-carboxamide]"
0.0017 µM,0.071 µM,"Clc1ccc(Nc2ccc(C3CNCCO3)nc2)cc1 (racemic) [Example 1, (RS)—N-(4-Chlorophenyl)-6-morpholin-2-yl-pyridin-3-amine]"

# More lines, now with the values behind:
Compound,Ki [1],Ki [2]
"Cc1cc(Nc2ccc(C(F)(F)F)cn2)cnc1C1CNCCO1 (racemic) [Example 104, (RS)-5-Methyl-6-morpholin-2-yl-N-[5-(trifluoromethyl)-2-pyridyl]pyridin-3-amine]",0.0837 µM,0.455 µM
"FC(F)(F)c1ccc(Nc2ccc([C@H]3CNCCO3)nc2)nc1 [Example 49, N-[6-[(2R)-Morpholin-2-yl]-3-pyridyl]-5-(trifluoromethyl)pyridin-2-amine]",0.0052 µM,0.066 µM
"CCCc1n[nH]c(C(=O)Nc2ccc([C@@H]3CNCCO3)nc2)c1F [Example 79, 4-Fluoro-N-[6-[(2S)-morpholin-2-yl]-3-pyridyl]-3-propyl-1H-pyrazole-5-carboxamide]",0.0074 µM,0.0568 µM
"O=C(Nc1ccc([C@H]2CNCCO2)nc1)Nc1cccc(C(F)(F)F)c1 [Example 62, 1-[6-[(2R)-Morpholin-2-yl]-3-pyridyl]-3-[3-(trifluoromethyl)phenyl]urea]",0.0035 µM,0.0077 µM
"O=C(Nc1ccc([C@H]2CNCCO2)nc1)c1ccc(C(F)(F)F)cc1 [Example 53, N-[6-[(2R)-Morpholin-2-yl]-3-pyridyl]-4-(trifluoromethyl)benzamide]",0.0061 µM,0.0718 µM
"O=C(Nc1ccc([C@@H]2CNCCO2)nc1)c1ccc(C(F)(F)F)cc1 [Example 33, N-[6-[(2S)-Morpholin-2-yl]-3-pyridyl]-4-(trifluoromethyl)benzamide]",0.0056 µM,0.052 µM
"O=C(Nc1ccc([C@H]2CNCCO2)nc1)c1[nH]nc(C2CC2)c1F [Example 86, 3-Cyclopropyl-4-fluoro-N-[6-[(2R)-morpholin-2-yl]-3-pyridyl]-1H-pyrazole-5-carboxamide]",0.0074 µM,0.156 µM
"O=C(Nc1ccc([C@H]2CNCCO2)nc1)c1[nH]nc(C2CC2)c1Br [Example 87, 4-Bromo-3-cyclopropyl-N-[6-[(2R)-morpholin-2-yl]-3-pyridyl]-1H-pyrazole-5-carboxamide]",0.0053 µM,0.0291 µM
"CCCCc1n[nH]c(C(=O)Nc2ccc([C@H]3CNCCO3)nc2)c1F [Example 96, 3-Butyl-4-fluoro-N-[6-[(2R)-morpholin-2-yl]-3-pyridyl]-1H-pyrazole-5-carboxamide]",0.0035 µM,0.0554 µM
"CC(C)n1nc(OCC(F)(F)F)cc1C(=O)Nc1ccc([C@H]2CNCCO2)nc1 [Example 99, 2-Isopropyl-N-[6-[(2R)-morpholin-2-yl]-3-pyridyl]-5-(2,2,2-trifluoroethoxy)pyrazole-3-carboxamide]",0.0242 µM,0.0041 µM
"CCc1n[nH]c(C(=O)Nc2ccc([C@H]3CNCCO3)nc2)c1F [Example 83, 3-Ethyl-4-fluoro-N-[6-[(2R)-morpholin-2-yl]-3-pyridyl]-1H-pyrazole-5-carboxamide]",0.0083 µM,0.757 µM
"CCCc1n[nH]c(C(=O)Nc2cnc(C3CNCCO3)c(C)c2)c1Cl (racemic) [Example 118, (RS)-4-Chloro-N-(5-methyl-6-morpholin-2-yl-3-pyridyl)-3-propyl-1H-pyrazole-5-carboxamide]",0.0468 µM,0.597 µM
"CCCCc1n[nH]c(C(=O)Nc2ccc([C@@H]3CNCCO3)nc2)c1F [Example 90, 3-Butyl-4-fluoro-N-[6-[(2S)-morpholin-2-yl]-3-pyridyl]-1H-pyrazole-5-carboxamide]",0.0038 µM,0.0269 µM
"Brc1ccc(Nc2ccc([C@@H]3CNCCO3)nc2)nc1 [Example 21, N-(5-Bromo-2-pyridyl)-6-[(2S)-morpholin-2-yl]pyridin-3-amine]",0.002 µM,0.0324 µM
